One compound from article PMC6510822, “Identification of anticancer OATP2B1 substrates by an in vitro triple-fluorescence-based cytotoxicity screen” (Archives of Toxicology, 2019) can be followed below.

Molecules are shown by their SMILES. Marks after values point to notes of the source that are not given here.

In data set [1] the target is T1, OATP2B1 (Homo sapiens, UniProt O94956).
T1 sequence (O94956 1-709): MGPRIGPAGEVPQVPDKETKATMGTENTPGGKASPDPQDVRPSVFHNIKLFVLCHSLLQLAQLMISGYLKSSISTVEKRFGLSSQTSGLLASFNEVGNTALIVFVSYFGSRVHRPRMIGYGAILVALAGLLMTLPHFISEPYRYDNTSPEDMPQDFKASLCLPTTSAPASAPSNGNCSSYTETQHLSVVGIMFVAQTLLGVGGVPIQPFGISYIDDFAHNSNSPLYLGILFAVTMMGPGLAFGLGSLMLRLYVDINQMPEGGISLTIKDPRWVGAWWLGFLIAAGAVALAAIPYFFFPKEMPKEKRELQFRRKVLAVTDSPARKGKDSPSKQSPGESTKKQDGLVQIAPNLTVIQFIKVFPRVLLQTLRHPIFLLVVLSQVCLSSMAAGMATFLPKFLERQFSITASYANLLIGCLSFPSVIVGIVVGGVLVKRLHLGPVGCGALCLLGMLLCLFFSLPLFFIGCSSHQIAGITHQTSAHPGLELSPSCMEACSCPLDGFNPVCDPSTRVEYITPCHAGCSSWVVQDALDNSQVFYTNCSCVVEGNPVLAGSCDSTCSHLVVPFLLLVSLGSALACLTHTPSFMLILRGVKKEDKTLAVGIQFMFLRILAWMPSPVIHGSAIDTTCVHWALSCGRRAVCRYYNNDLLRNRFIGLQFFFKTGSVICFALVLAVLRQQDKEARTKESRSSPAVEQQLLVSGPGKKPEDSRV
Kind of data set: Inhibition of OATP2B1-mediated Cascade Blue uptake (microplate-based uptake assay, A431-2B1 cells).
Procedure: OATP-expressing A431 cells were seeded (7 × 10^4 cells in 200 µl final volume/well) onto 96-well plates and cultured for 16–24 h at 37 °C, 5% CO2. After reaching confluence, the supernatant was removed and the cells were washed three-times with 200 µl of phosphate-buffered saline (PBS). The cells were preincubated in the presence of the compounds for 5 min at 37 °C. The amount of solvent was kept below 0.5% throughout the study to avoid interference with the fluorescence of the dyes. The reaction was started with the addition of 50 µl Cascade Blue fluorescent dye (10 µM final concentration in a final volume of 100 µl) and the plate was incubated at 37 °C for 30 min (Patik et al. [2018]). The reaction was stopped by the addition of 200 µl ice-cold PBS. The supernatant was rapidly removed, and the cells were washed three-times with 200 µl ice-cold PBS. Finally, 200 µl PBS was added to the cells and fluorescence was measured at room temperature using an EnSpire fluorescent plate reader (Perkin Elmer) at wavelengths 401ex/419em nm.

Data set [2] deals with A431 cells. Kind of data set: Fluorescence-based cytotoxicity assay, parental A431 eGFP. The conditions noted are these: Homo sapiens, A-431, read-out: IC50 (µM) A431 eGFP, co-culture.
Procedure: (§1) After the transduction, cell lines were tested by flow cytometry and were sorted based on transporter expression/function, and in the case of the OATP2B1-expressing cell line, on CD4 protein expression. Parental, SLCO2B1, ABCG2 and ABCB1 overexpressing cell lines were transduced with the fluorescent protein expressing lentiviral supernatants produced with pRRL-EF1-mCherry, -mOrange or -eGFP expression plasmid in a second round of transduction. Mes-Sa/Dx5-eGFP cells were repeatedly cultured in 500 nM doxorubicin to ensure homogenous expression of Pgp. […] Functional expression of ABCB1 and ABCG2 was regularly checked with cytotoxicity assays using mitoxantrone in the absence or presence of tariquidar.
(§2) All experiments were performed using a robotic pipetting workstation (Hamilton Robotics STAR Let). Cells were seeded at a final cell density of 1875 cells per well in 384-well plates in the triple co-culture (625 cells from each lines) and at 2500 cells per well in the A431 control and A431-2B1 co-culture (1250 cells from both) systems. Co-cultured cells were incubated for 24 h at 37 °C and 5% CO2 under humidified atmosphere prior to the addition of drugs. […] Data were exported to a custom-made program for determining growth inhibition curves for each cell line.
(§3) In the primary screening, IC50 was estimated by the intercept of the linear regression fitted on nearest values. In the confirmatory screening, IC50 values were obtained by sigmoidal curve fitting using the GraphPad Prism software. […] The Resistance Ratio (RR) was calculated by dividing the IC50 values measured against the multidrug resistant, transporter-expressing derivative by the cytotoxicity measured in the parental cell line; the Selectivity Ratio (SR) is the inverse of RR.
In data set [3] the test system is Mes-Sa/Dx5 cells. As to the kind of experiment: Fluorescence-based cytotoxicity assay, Mes-Sa/Dx5 eGFP.
Procedure: as §1, §2, §3
In data set [4] the test system is OATP2B1. As to the kind of experiment: in vitro. The conditions noted are these: human.
Procedure: as §1, §2, §3
The test system of data set [5] is A431-2B1 cells (OATP2B1 expressing). As to the kind of experiment: Fluorescence-based cytotoxicity assay, OATP2B1-expressing A431-2B1 mCh.
Procedure: as §1, §2, §3

As a reminder, the IC50 is the concentration that inhibits the measured activity by half. `S=P(N1CC1)(N1CC1)N1CC1` [NSC-6396, Thioplex]: the concentration for half-maximal inhibition (IC50) in data set [1] amounted to 574 ± 283 µM; in data set [2] it was 57.6 µM; in data set [4], 18.7 µM. Besides, the “SR (Mes-Sa/DX5)” value in data set [3] is reported as 12.56. Besides, the “SR (A431-2B1 vs parental A431), screening of DTP Oncology Set IV” value in data set [5] is given as 3.48. The “SR, co-culture” value in data set [5] is 3.08^*.
